Laboratory results taken from the Kinase Knowledgebase extract (Sharma et al. 2016).

Assays:
PIK3CG (human) [1] = biological target: PIK3CG (human) (UniProt P48736); experiment: Cell-Based Assay; conditions: u937
PIK3CD (Human) = PIK3CD (Human) (UniProt O00329); experiment: Enzyme Assay
PIK3CB (Human) = PIK3CB (Human) (UniProt P42338); experiment: Enzyme Assay
PIK3CA (human) = PIK3CA (human) (UniProt P42336); experiment: Enzyme Assay
PIK3CG (human) [2] = biological target: PIK3CG (human) (UniProt P48736); experiment: Enzyme Assay

PIK3CG (human), sequence (P48736 whole entry, looked up): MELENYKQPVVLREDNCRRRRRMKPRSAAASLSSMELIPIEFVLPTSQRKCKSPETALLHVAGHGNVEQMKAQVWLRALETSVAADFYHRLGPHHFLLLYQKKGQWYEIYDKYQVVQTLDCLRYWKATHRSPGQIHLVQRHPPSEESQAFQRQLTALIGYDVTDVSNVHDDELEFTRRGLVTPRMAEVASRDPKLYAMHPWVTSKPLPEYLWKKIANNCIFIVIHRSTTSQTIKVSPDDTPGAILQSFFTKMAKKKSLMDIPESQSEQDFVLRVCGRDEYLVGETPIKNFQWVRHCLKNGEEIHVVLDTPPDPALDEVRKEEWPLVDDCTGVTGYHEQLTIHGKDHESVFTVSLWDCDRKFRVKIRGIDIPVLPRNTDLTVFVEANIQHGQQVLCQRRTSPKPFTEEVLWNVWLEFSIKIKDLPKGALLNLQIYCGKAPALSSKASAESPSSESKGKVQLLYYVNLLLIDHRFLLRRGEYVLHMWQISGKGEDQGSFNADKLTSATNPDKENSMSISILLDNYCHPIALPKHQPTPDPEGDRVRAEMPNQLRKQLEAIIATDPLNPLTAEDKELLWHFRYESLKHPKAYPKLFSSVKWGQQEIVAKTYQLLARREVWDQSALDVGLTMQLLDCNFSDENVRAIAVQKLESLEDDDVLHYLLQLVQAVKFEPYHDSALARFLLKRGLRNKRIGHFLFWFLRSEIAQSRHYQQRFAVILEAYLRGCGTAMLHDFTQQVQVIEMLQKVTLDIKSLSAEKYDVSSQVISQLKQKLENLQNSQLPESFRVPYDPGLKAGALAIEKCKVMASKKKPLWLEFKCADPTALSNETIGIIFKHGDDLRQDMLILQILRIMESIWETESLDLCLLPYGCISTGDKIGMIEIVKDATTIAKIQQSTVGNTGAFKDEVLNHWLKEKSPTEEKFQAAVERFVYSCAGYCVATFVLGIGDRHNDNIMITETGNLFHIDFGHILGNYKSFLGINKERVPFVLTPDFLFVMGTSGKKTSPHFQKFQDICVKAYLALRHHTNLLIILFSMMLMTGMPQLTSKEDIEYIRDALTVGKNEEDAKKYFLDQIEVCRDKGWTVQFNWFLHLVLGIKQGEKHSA
PIK3CA (human), sequence (P42336 whole entry, looked up): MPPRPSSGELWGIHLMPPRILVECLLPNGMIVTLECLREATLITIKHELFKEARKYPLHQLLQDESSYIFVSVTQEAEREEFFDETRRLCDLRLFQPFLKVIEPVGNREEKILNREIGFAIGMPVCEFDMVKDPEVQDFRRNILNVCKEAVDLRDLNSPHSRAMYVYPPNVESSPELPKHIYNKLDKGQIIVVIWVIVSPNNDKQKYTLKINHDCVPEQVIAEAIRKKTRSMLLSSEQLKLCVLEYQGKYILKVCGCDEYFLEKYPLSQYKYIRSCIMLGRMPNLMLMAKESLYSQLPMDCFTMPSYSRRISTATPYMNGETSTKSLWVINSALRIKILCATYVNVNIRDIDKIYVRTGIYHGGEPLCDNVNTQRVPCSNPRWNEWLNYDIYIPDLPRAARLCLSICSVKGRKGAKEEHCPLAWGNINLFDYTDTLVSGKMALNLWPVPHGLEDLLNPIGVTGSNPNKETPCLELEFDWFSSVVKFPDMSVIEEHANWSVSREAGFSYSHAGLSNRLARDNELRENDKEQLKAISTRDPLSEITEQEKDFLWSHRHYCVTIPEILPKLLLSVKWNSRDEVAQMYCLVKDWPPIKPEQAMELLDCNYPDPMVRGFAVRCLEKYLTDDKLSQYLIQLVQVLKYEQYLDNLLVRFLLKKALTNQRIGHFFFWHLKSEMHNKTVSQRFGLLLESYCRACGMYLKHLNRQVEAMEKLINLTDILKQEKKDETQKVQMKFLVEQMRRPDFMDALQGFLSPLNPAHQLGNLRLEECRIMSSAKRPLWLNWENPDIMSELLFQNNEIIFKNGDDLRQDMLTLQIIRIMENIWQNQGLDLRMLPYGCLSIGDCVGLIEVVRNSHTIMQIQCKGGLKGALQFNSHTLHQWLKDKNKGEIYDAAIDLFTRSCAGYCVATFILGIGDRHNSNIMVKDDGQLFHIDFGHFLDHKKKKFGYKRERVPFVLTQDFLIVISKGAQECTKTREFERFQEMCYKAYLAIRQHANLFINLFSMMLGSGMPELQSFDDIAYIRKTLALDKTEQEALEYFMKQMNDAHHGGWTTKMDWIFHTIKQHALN
PIK3CD (Human), sequence (O00329 whole entry, looked up): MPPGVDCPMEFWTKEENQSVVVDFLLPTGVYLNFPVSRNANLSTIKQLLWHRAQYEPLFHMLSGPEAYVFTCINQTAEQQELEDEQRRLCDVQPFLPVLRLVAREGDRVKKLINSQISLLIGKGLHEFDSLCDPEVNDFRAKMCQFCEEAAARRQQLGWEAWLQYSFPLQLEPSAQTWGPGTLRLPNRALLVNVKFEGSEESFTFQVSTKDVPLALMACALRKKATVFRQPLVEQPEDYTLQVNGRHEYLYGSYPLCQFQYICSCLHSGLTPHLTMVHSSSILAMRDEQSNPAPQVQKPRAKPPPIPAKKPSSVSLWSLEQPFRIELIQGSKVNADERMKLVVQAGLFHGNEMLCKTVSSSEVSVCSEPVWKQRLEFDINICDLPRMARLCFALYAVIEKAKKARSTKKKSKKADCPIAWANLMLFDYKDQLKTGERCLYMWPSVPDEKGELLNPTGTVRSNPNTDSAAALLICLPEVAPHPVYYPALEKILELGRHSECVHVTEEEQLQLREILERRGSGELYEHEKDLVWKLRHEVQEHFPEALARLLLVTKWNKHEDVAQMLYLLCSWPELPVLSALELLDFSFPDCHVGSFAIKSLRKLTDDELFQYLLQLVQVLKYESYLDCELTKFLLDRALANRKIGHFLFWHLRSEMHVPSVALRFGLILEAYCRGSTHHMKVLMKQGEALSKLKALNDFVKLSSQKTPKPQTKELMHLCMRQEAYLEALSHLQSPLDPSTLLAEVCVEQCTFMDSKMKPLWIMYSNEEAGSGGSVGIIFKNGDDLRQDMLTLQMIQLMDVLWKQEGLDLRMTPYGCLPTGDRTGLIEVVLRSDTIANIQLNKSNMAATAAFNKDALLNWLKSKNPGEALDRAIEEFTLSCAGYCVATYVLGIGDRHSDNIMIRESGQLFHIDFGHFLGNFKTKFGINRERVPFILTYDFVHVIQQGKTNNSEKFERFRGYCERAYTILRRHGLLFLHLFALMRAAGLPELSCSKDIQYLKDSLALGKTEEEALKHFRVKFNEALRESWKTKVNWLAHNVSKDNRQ
PIK3CB (Human), sequence (P42338 whole entry, looked up): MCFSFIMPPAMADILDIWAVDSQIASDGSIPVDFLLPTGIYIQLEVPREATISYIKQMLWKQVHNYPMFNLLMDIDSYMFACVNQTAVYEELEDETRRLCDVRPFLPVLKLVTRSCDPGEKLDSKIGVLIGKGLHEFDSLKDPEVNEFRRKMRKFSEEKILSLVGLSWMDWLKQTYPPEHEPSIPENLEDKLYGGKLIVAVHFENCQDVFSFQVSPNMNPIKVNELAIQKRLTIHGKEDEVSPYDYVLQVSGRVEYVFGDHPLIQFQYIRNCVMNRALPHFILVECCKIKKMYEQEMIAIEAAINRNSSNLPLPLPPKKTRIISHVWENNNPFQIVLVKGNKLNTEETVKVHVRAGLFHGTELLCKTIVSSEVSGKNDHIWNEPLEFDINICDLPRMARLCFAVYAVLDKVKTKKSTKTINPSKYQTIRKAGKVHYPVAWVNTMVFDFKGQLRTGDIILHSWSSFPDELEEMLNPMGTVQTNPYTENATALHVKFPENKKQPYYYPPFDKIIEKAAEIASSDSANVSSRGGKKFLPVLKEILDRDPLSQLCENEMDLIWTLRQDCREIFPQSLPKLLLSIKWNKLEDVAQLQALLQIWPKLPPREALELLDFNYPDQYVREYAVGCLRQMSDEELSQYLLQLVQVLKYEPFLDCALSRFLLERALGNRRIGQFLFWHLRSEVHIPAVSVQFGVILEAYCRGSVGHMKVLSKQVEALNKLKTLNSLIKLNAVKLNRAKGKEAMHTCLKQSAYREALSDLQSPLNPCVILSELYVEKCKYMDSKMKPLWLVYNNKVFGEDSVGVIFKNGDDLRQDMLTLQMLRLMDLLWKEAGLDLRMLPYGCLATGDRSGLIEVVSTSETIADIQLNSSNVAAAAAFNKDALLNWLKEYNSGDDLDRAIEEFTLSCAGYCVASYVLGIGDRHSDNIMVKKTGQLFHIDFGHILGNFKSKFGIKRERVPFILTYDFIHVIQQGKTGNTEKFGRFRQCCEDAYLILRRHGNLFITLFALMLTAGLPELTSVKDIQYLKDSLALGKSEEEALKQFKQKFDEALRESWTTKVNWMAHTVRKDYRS

IC50 (PIK3CG (human) [1]) [nM]	IC50 (PIK3CD (Human)) [nM]	IC50 (PIK3CB (Human)) [nM]	IC50 (PIK3CA (human)) [nM]	IC50 (PIK3CG (human) [2]) [nM]	SMILES
22	90	450	40	13	Cc1ccc(S(=O)(=O)NC2CC3(CC(O)C3)C2)cc1-c1cncc(-c2cn(C)nc2C)n1 (stereo not given)
122	40	1900	100	38	Cc1cc(-c2cncc(-c3cc(S(=O)(=O)NC[C@H]4C[C@@H](O)C4)ccc3C)n2)n(C)n1
61	100	630	90	11	Cc1ccc(S(=O)(=O)NC[C@H]2C[C@@H](O)C2)cc1-c1cncc(-c2cn(C)nc2C)n1
122	10	> 9100	160	6	Cc1ccc(S(=O)(=O)N[C@H]2CC[C@H](O)CC2)cc1-c1cncc(-c2csc(CN3CCOCC3)c2)n1
